# From patent US20210045385A1, “PYRIDAZINONE-SUBSTITUTED KETOXIMES AS HERBICIDES” (FMC Corporation, priority 2018, published 2021)
# Assays:
# Format in all cases: in vivo
# [1] = system: ragweed (common ragweed, Ambrosia artemisiifolia); assay: Test C preemergence, visual plant response rating
# Procedure, shortened: (§1)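 Compounds in a non-phytotoxic solvent with surfactant were applied as a directed soil spray preemergence or to 2–10 cm, one- to two-leaf plants postemergence, in loam–sand soil. After about 10 d in a greenhouse, injury was visually rated against untreated controls on a 0–100 scale (100 = complete control).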
# [2] = system: foxtail, giant (giant foxtail, Setaria faberi); assay: Test C preemergence, visual plant response rating
# Procedure, shortened: as §1
# [3] = system: Italian ryegrass (Lolium mutiflorum); assay: Test C preemergence, visual plant response rating
# Procedure, shortened: as §1
# [4] = system: pigweed (Amaranthus retroflexus); assay: Test C preemergence, visual plant response rating
# Procedure, shortened: as §1
# [5] = system: kochia (Bassia scoparia); assay: Test C preemergence, visual plant response rating
# Procedure, shortened: as §1
# [6] = system: barnyardgrass (Echinochloa crus-galli); assay: Test C preemergence, visual plant response rating
# Procedure, shortened: as §1
# [7] = system: ragweed (common ragweed, Ambrosia artemisiifolia); assay: Test C postemergence, visual plant response rating
# Procedure, shortened: as §1
# [8] = system: foxtail, giant (giant foxtail, Setaria faberi); assay: Test C postemergence, visual plant response rating
# Procedure, shortened: as §1
# [9] = system: blackgrass (Alopecurus myosuroides); assay: Test C postemergence, visual plant response rating
# Procedure, shortened: as §1
# [10] = system: Italian ryegrass (Lolium mutiflorum); assay: Test C postemergence, visual plant response rating
# Procedure, shortened: as §1
# [11] = system: pigweed (Amaranthus retroflexus); assay: Test C postemergence, visual plant response rating
# Procedure, shortened: as §1
# [12] = system: galium (catchweed bedstraw, Galium aparine); assay: Test C postemergence, visual plant response rating
# Procedure, shortened: as §1
# [13] = system: kochia (Bassia scoparia); assay: Test C postemergence, visual plant response rating
# Procedure, shortened: as §1
# [14] = system: wheat (Triticum aestivum); assay: Test C postemergence, visual plant response rating
# Procedure, shortened: as §1
# [15] = system: corn (Zea mays); assay: Test C postemergence, visual plant response rating
# Procedure, shortened: as §1
# [16] = system: barnyardgrass (Echinochloa crus-galli); assay: Test C postemergence, visual plant response rating
# Procedure, shortened: as §1
# [17] = system: sedge umbrella (small-flower umbrella sedge, Cyperus difformis); assay: Test D flooded paddy test, visual plant response rating; details: 250 g ai/ha, scale 0 to 100 (0 no effect, 100 complete control), 13 to 15 d
# Procedure, shortened: (§2)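 2-leaf plants, flooded 3 cm, cpd into paddy water; greenhouse 13–15 d; visual rating vs controls, 0 = no effect, 100 = complete control; dash = no result.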
# [18] = system: rice (Oryza sativa); assay: as above; details: 250 g ai/ha, scale 0 to 100 (0 no effect, 100 complete control), 13 to 15 d
# Procedure, shortened: as §2
# [19] = system: duck salad (Heteranthera limosa); assay: as above; details: 250 g ai/ha, scale 0 to 100 (0 no effect, 100 complete control), 13 to 15 d
# Procedure, shortened: as §2
# [20] = system: barnyardgrass (Echinochloa crus-galli); assay: as above; details: 250 g ai/ha, scale 0 to 100 (0 no effect, 100 complete control), 13 to 15 d
# Procedure, shortened: as §2
# [21] = Test C, postemergence, 125 g ai/ha
# [22] = Test C, postemergence, 500 g ai/ha
# [23] = Test C, 31 g ai/ha, 0 is no effect, 100 is complete control
# [24] = Test C, 125 g ai/ha, 0 is no effect, 100 is complete control
smiles,measurement,setting,value
CON=C(c1csc(C)c1)c1c(O)c(C)nn(C)c1=O [Compound 151],Ragweed plant response rating (0 to 100 scale),[1]; 125 g ai/ha,0
same,Ragweed plant response rating (0 to 100 scale),[1]; 500 g ai/ha,0
same,"Foxtail, Giant plant response rating (0 to 100 scale)",[2]; 125 g ai/ha,0
same,"Foxtail, Giant plant response rating (0 to 100 scale)",[2]; 500 g ai/ha,0
same,"Ryegrass, Italian plant response rating (0 to 100 scale)",[3]; 125 g ai/ha,0
same,"Ryegrass, Italian plant response rating (0 to 100 scale)",[3]; 500 g ai/ha,30
same,Pigweed plant response rating (0 to 100 scale),[4]; 125 g ai/ha,0
same,Pigweed plant response rating (0 to 100 scale),[4]; 500 g ai/ha,0
same,Kochia plant response rating (0 to 100 scale),[5]; 125 g ai/ha,0
same,Kochia plant response rating (0 to 100 scale),[5]; 500 g ai/ha,0
same,Barnyardgrass plant response rating (0 to 100 scale),[6]; 125 g ai/ha,0
same,Barnyardgrass plant response rating (0 to 100 scale),[6]; 500 g ai/ha,0
same,Ragweed plant response rating (0 to 100 scale),[7]; [21],0
same,Ragweed plant response rating (0 to 100 scale),[7]; [22],30
same,"Foxtail, Giant plant response rating (0 to 100 scale)",[8]; [21],0
same,"Foxtail, Giant plant response rating (0 to 100 scale)",[8]; [22],10
same,Blackgrass plant response rating (0 to 100 scale),[9]; [21],0
same,Blackgrass plant response rating (0 to 100 scale),[9]; [22],30
same,"Ryegrass, Italian plant response rating (0 to 100 scale)",[10]; [21],20
same,"Ryegrass, Italian plant response rating (0 to 100 scale)",[10]; [22],30
same,Pigweed plant response rating (0 to 100 scale),[11]; [21],10
same,Pigweed plant response rating (0 to 100 scale),[11]; [22],10
same,Galium plant response rating (0 to 100 scale),[12]; [21],40
same,Galium plant response rating (0 to 100 scale),[12]; [22],50
same,Kochia plant response rating (0 to 100 scale),[13]; [21],0
same,Kochia plant response rating (0 to 100 scale),[13]; [22],20
same,Wheat plant response rating (0 to 100 scale),[14]; [21],0
same,Wheat plant response rating (0 to 100 scale),[14]; [22],0
same,Corn plant response rating (0 to 100 scale),[15]; [21],0
same,Corn plant response rating (0 to 100 scale),[15]; [22],0
same,Barnyardgrass plant response rating (0 to 100 scale),[16]; [21],0
same,Barnyardgrass plant response rating (0 to 100 scale),[16]; [22],10
same,"Plant response rating, Sedge, Umbrella (Flood)",[17],0
same,"Plant response rating, Rice (Flood)",[18],0
same,"Plant response rating, Ducksalad (Flood)",[19],0
same,"Plant response rating, Barnyardgrass (Flood)",[20],0
Cc1nn(C)c(=O)c(/C(=N/OCCO)c2cccc3cc(Cl)ccc23)c1O [Compound 240],Ragweed plant response rating (0 to 100 scale),[1]; [23],0
same,Ragweed plant response rating (0 to 100 scale),[1]; [24],10
same,"Foxtail, Giant plant response rating (0 to 100 scale)",[2]; [23],10
same,"Foxtail, Giant plant response rating (0 to 100 scale)",[2]; [24],80
same,"Ryegrass, Italian plant response rating (0 to 100 scale)",[3]; [23],0
same,"Ryegrass, Italian plant response rating (0 to 100 scale)",[3]; [24],0
same,Pigweed plant response rating (0 to 100 scale),[4]; [23],50
same,Pigweed plant response rating (0 to 100 scale),[4]; [24],100
same,Kochia plant response rating (0 to 100 scale),[5]; [23],0
same,Kochia plant response rating (0 to 100 scale),[5]; [24],0
same,Barnyardgrass plant response rating (0 to 100 scale),[6]; [23],0
same,Barnyardgrass plant response rating (0 to 100 scale),[6]; [24],0
same,Ragweed plant response rating (0 to 100 scale),"[7]; Postemergence, 31 g ai/ha",0
same,Ragweed plant response rating (0 to 100 scale),[7]; [21],0
same,"Foxtail, Giant plant response rating (0 to 100 scale)","[8]; Postemergence, 31 g ai/ha",0
same,"Foxtail, Giant plant response rating (0 to 100 scale)",[8]; [21],0
same,Blackgrass plant response rating (0 to 100 scale),"[9]; Postemergence, 31 g ai/ha",0
same,Blackgrass plant response rating (0 to 100 scale),[9]; [21],10
same,"Ryegrass, Italian plant response rating (0 to 100 scale)","[10]; Postemergence, 31 g ai/ha",0
same,"Ryegrass, Italian plant response rating (0 to 100 scale)",[10]; [21],0
same,Pigweed plant response rating (0 to 100 scale),"[11]; Postemergence, 31 g ai/ha",70
same,Pigweed plant response rating (0 to 100 scale),[11]; [21],80
same,Galium plant response rating (0 to 100 scale),"[12]; Postemergence, 31 g ai/ha",20
same,Galium plant response rating (0 to 100 scale),[12]; [21],50
same,Kochia plant response rating (0 to 100 scale),"[13]; Postemergence, 31 g ai/ha",0
same,Kochia plant response rating (0 to 100 scale),[13]; [21],0
same,Wheat plant response rating (0 to 100 scale),"[14]; Postemergence, 31 g ai/ha",0
same,Wheat plant response rating (0 to 100 scale),[14]; [21],0
same,Corn plant response rating (0 to 100 scale),"[15]; Postemergence, 31 g ai/ha",0
same,Corn plant response rating (0 to 100 scale),[15]; [21],0
same,Barnyardgrass plant response rating (0 to 100 scale),"[16]; Postemergence, 31 g ai/ha",0
same,Barnyardgrass plant response rating (0 to 100 scale),[16]; [21],20
same,"Plant response rating, Sedge, Umbrella (Flood)",[17],0
same,"Plant response rating, Rice (Flood)",[18],0
same,"Plant response rating, Ducksalad (Flood)",[19],0
same,"Plant response rating, Barnyardgrass (Flood)",[20],15
